Assays:
MCF-7 (breast cancer) = test: Antiproliferative assay in vitro, SRB test, MCF-7; type: cell-based, human; settings: mean ± SD of 3–5 independent experiments, n.a. = no activity in concentration of 5, 25, 125, 625 μM
Procedure: (§1) Established in vitro, human cancer cell lines: MV4-11 (human biphenotypic B myelomonocytic leukaemia), A-549 (non-small cell lung cancer), MCF-7 (breast cancer), LoVo (colon cancer), LoVo/DX (colon cancer drug resistant), HepG2 (liver cancer) and BALB/3T3 (normal mice fibroblasts) were used.
(§2) The leukaemia cell line was cultured in RPMI 1640 medium (IIET, Wroclaw, Poland) with supplemented with 2 mM L-glutamine adjusted to contain 1.0 mM sodium pyruvate, 10% fetal bovine serum (all from Sigma-Aldrich Chemie GmbH, Steinheim, Germany). A549, LoVo and LoVo/DX cells were cultured in the mixture of RPMI 1640+Opti-MEM (1:1) (both from Gibco, Scotland, UK), MCF-7 cells in Eagle medium (IIET, Wroclaw, Poland), HepG2 in DMEM medium (Gibco, Scotland, UK), BALB/3T3 in DMEM medium (IIET, Wroclaw, Poland) supplemented with 2 mM L-glutamine and 1.0 mM sodium pyruvate, 10% fetal bovine serum (all from Sigma-Aldrich, Germany). The MCF-7 cell culture was supplemented with 0.8 mg/L of insulin (Sigma-Aldrich Chemie GmbH, Steinheim, Germany) and the LoVo/DX cell culture was supplemented with 0.1 μg/mL of doxorubicin (Accord). All culture media were supplemented with 100 units/mL penicillin, and 100 μg/mL streptomycin (both from Polfa Tarchomin S.A., Warsaw, Poland). All cell lines were grown at 37°C with 5% CO2 humidified atmosphere.
(§3) Prior to usage, the compounds were dissolved in DMSO or in mixture of 99.8% ethanol and DMSO (1:1) to the concentration of 25 or 50 mM, and subsequently diluted in culture medium to reach the required concentrations (ranging from 5 to 625 μM).
(§4) 24 hours before addition of the tested compounds, the cells were plated in 96-well plates at density of 1×10^4 cells per well. An assay was performed after 72 hours exposure to varying concentrations of the tested agents.
(§5) Cytotoxic test MTT was applied for the cytotoxicity screening against leukaemia cells growing in suspension culture and were carried out according to the method described before. Cytotoxic test SRB was applied against A549, MCF-7, LoVo, LoVo/DX, BALB/3T3 and HepG2 cells and were carried out according to the method described before.
(§6) The results were calculated as an IC50 (inhibitory concentration 50)–the concentration of tested agent, which inhibits proliferation of 50% of the cell population. Each compound in each concentration was tested in triplicate in a single experiment, which was repeated 3–5 times.

[1] = test system: A-549 (non-small cell lung cancer); test: Antiproliferative assay in vitro, SRB test, A-549; type: cell-based, human; settings: mean ± SD of 3–5 independent experiments, n.a. = no activity in concentration of 5, 25, 125, 625 μM
Procedure: as §1, §2, §3, §4, §5, §6

[2] = test system: drug resistant LOVO/DX line versus drug sensitive LoVo line; test: Resistance index (RI), LoVo/DX versus LoVo; type: cell-based, human; settings: RI = IC50 LoVo/DX / IC50 LoVo; 0<RI<2 able to overcome drug resistance; 2<RI<10 moderate ability; RI>10 no influence
Procedure: Using the obtained IC50 values, the resistance indexes (RI) were calculated by dividing the IC50 values of the compounds tested against the cells of drug resistant cell LOVO/DX line by respective values obtained against the cells of drug sensitive LoVo line. According to Harker et al. three categories of the cells could be distinguished: (a) the cells are drug-sensitive—if the ratio approaches 0–2; (b) the cells are moderately drug-resistant—if the ratio ranges from 2 to 10; (c) the cells are markedly drug-resistant—if the ratio is higher than 10.
We calculated also the resistance indexes (RI) by dividing the IC50 values of the compounds tested against the cells of drug resistant cell LoVo/DX by respective values obtained against the drug sensitive LoVo cell line (Table 2). […] Compounds 7a, 7b and 10b have the highest ability to overcome the barrier of resistance (RI = 1.08, 1.06 and 1.09).

[3] = test system: BALB/3T3 (normal mice fibroblasts); test: Antiproliferative assay in vitro, SRB test, BALB/3T3; type: cell-based; settings: mean ± SD of 3–5 independent experiments, n.a. = no activity in concentration of 5, 25, 125, 625 μM
Procedure: as §1, §2, §3, §4, §5, §6

[4] = test system: MV4-11 (human biphenotypic B myelomonocytic leukaemia); test: Antiproliferative assay in vitro, MTT test, MV4-11; type: cell-based; settings: mean ± SD of 3–5 independent experiments, n.a. = no activity in concentration of 5, 25, 125, 625 μM
Procedure: as §1, §2, §3, §4, §5, §6

HepG2 (liver cancer) = test: Antiproliferative assay in vitro, SRB test, HepG2; type: cell-based, human; settings: mean ± SD of 3–5 independent experiments, n.a. = no activity in concentration of 5, 25, 125, 625 μM
Procedure: as §1, §2, §3, §4, §5, §6

LoVo (colon cancer) = test: Antiproliferative assay in vitro, SRB test, LoVo; type: cell-based, human; settings: 72 hours exposure, mean ± SD of 3–5 independent experiments, n.a. = no activity in concentration of 5, 25, 125, 625 μM
Procedure: as §1, §2, §3, §4, §5, §6

[5] = test system: LoVo/DX (colon cancer drug resistant); test: Antiproliferative assay in vitro, SRB test, LoVo/DX; type: cell-based, human; settings: 72 hours exposure, doxorubicin-resistant line, mean ± SD of 3–5 independent experiments, n.a. = no activity in concentration of 5, 25, 125, 625 μM
Procedure: as §1, §2, §3, §4, §5, §6

tested cancer cell lines = test: Antiproliferative activity compared with free terpene acids, cancer cell line panel; type: cell-based, human; settings: for antiproliferative activity, fold higher than free acids: compared with free terpene acids; for IC50 values, fold lower than those of free terpene acids 1a, 1b: towards leukaemia, LoVo, LOVO/DX and breast cell lines
Procedure: as §4, §5, §6
The aim of this study was to determine whether a joining the terpenes with PC has impact on their biological activity. Increasing the lipophilicity of active compounds was expected to raise their cytotoxicity. We observed that almost all synthesized compounds were cytotoxic against tested cancer cell lines. […] Upon careful evaluation of data it can be concluded that cytotoxic activity of terpene-modified PCs is depended on the position of terpene moiety in the backbone of PC. […] These compounds stronger than corresponding acids inhibit the proliferation of cancer cells. […] Their IC50 values were more than 9-fold lower than those determined for free terpene acids 1a, 1b towards leukaemia, LoVo, LOVO/DX and breast cell lines. […] Generally, activity of terpene-modified PC increased in the following sequence: 1-isoprenoyl-LPC < diisoprenoyl-PC < monoisoprenoyl-PC.

[6] = Homo sapiens, MCF7, 72 hours exposure
[7] = Homo sapiens, A549, 72 hours exposure
[8] = Mus musculus, BALB/3T3, 72 hours exposure
[9] = Homo sapiens, MV4-11, 72 hours exposure
[10] = Homo sapiens, HepG2, 72 hours exposure

SMILES | IC50 (MCF-7 (breast cancer); [6]) | IC50 [1, 7] | IC50 [4, 9] | IC50 (HepG2 (liver cancer); [10]) | IC50 (LoVo (colon cancer); Homo sapiens, LoVo) | IC50 ([5]; Homo sapiens, LoVo/DX) | IC50 values, fold lower than those of free terpene acids 1a, 1b (tested cancer cell lines) | Resistance index (RI) [2] | IC50 [3, 8] | antiproliferative activity, fold higher than free acids (tested cancer cell lines) | IC50 ±SD, A-549 ([1]; 72 hours exposure) | IC50 ±SD, HepG2 (HepG2 (liver cancer); 72 hours exposure) | IC50 (MCF-7 (breast cancer); 72 hours exposure) | IC50 ([1]; 72 hours exposure) | IC50 ([3]; 72 hours exposure) | IC50 ([4]; 72 hours exposure) | IC50 (HepG2 (liver cancer); 72 hours exposure) | IC50 (LoVo (colon cancer)) | IC50 [5]
COc1cccc2c1C(=O)c1c(O)c3c(c(O)c1C2=O)C[C@@](O)(C(=O)CO)C[C@@H]3O[C@H]1C[C@H](N)[C@H](O)[C@H](C)O1 [Doxorubicin, reference compound] | – | – | – | – | 0.117 ± 0.012 µM | 6.53 ± 0.93 µM | – | 55.81 | – | – | – | – | – | – | – | – | – | – | –
CC(C)=CCCC(C)=CC(=O)O [Compound 1a, Geranic acid, reference compound] | 447 ± 72 µM | – | 311 ± 96.4 µM | – | 263 ± 32 µM | 492 ± 44.5 µM | – | 1.87 | – | – | did not showed any reduction of cells growth | did not showed any reduction of cells growth | – | – | – | – | – | – | –
N.N.[Cl][Pt][Cl] [Cisplatin, reference compound] | – | – | – | – | – | – | – | – | – | – | – | – | 8.1 ± 0.03 µM | 8.6 ± 0.7 µM | 4.2 ± 1.1 µM | 1.3 ± 0.47 µM | 2.38 ± 0.64 µM | 2.56 ± 0.35 µM | 3.17 ± 0.2 µM
CC(C)=CCCC(C)CC(=O)O (stereo not drawn) [Compound 1b, citronellic acid, reference compound] | 453 ± 96 µM | – | 254 ± 68 µM | – | 249 ± 26.4 µM | 533 ± 36.7 µM | – | – | – | – | did not showed any reduction of cells growth | did not showed any reduction of cells growth | – | – | – | – | – | – | –

More lines, main results first:

IC50 (MCF-7 (breast cancer); [6]) | IC50 [1, 7] | IC50 [4, 9] | IC50 (HepG2 (liver cancer); [10]) | IC50 (LoVo (colon cancer); Homo sapiens, LoVo) | IC50 ([5]; Homo sapiens, LoVo/DX) | IC50 values, fold lower than those of free terpene acids 1a, 1b (tested cancer cell lines) | SMILES | Resistance index (RI) [2] | IC50 [3, 8] | antiproliferative activity, fold higher than free acids (tested cancer cell lines) | IC50 ±SD, A-549 ([1]; 72 hours exposure) | IC50 ±SD, HepG2 (HepG2 (liver cancer); 72 hours exposure) | IC50 (MCF-7 (breast cancer); 72 hours exposure) | IC50 ([1]; 72 hours exposure) | IC50 ([3]; 72 hours exposure) | IC50 ([4]; 72 hours exposure) | IC50 (HepG2 (liver cancer); 72 hours exposure) | IC50 (LoVo (colon cancer)) | IC50 [5]
236 ± 21.3 µM | 274 ± 9.42 µM | 96.7 ± 33.9 µM | 285 ± 5 µM | 248 ± 9.3 µM | 279 ± 10.8 µM | – | CC(C)=CCCC(C)=CC(=O)OC[C@H](COP(=O)([O-])OCC[N+](C)(C)C)OC(=O)C=C(C)CCC=C(C)C (mixture of isomers) [Compound 3a] | 1.12 | 273 ± 6.76 µM | 2-3 fold | – | – | – | – | – | – | – | – | –
523 ± 97.2 µM | – | 324 ± 116 µM | – | 246 ± 9.9 µM | 526 ± 89.6 µM | – | CC(C)=CCCC(C)=CC(=O)OC[C@@H](O)COP(=O)([O-])OCC[N+](C)(C)C (mixture of isomers) [Compound 9a] | – | – | – | not active | not active | – | – | – | – | – | – | –
105 ± 6.51 µM | 72.1 ± 14.4 µM | 60.9 ± 10.9 µM | 200 ± 6.1 µM | 51.1 ± 5.1 µM | 55 ± 2.12 µM | more than 9 fold | CCCCCCCCCCCCCCCC(=O)OC[C@H](COP(=O)([O-])OCC[N+](C)(C)C)OC(=O)C=C(C)CCC=C(C)C (mixture of isomers) [Compound 7a, 1'-palmitoyl-2'-(E)-geranoyl-sn-glycero-3'-phosphocholine + 1'-palmitoyl-2'-(Z)-geranoyl-sn-glycero-3'-phosphocholine] | 1.08 | 186 ± 15.2 µM | – | – | – | – | – | – | – | – | – | –
243 ± 45.1 µM | 203 ± 47.7 µM | 130 ± 37.8 µM | 280.7 ± 1.8 µM | 194 ± 22 µM | 251 ± 23.4 µM | – | CC(C)=CCCC(C)CC(=O)OC[C@H](COP(=O)([O-])OCC[N+](C)(C)C)OC(=O)CC(C)CCC=C(C)C (stereo partly drawn) [Compound 3b] | 1.3 | 284 ± 6.3 µM | 2-3 fold | – | – | – | – | – | – | – | – | –
– | – | 382 ± 24.5 µM | – | 287 ± 35.1 µM | 552 ± 18.5 µM | – | CC(C)=CCCC(C)CC(=O)OC[C@@H](O)COP(=O)([O-])OCC[N+](C)(C)C (stereo partly drawn) [Compound 9b] | 1.93 | – | – | – | – | – | – | – | – | – | – | –
155 ± 88.3 µM | 61.2 ± 6 µM | 45.7 ± 7.63 µM | 103 ± 11.1 µM | 53.9 ± 2.97 µM | 57.1 ± 2.5 µM | more than 9 fold | CCCCCCCCCCCCCCCC(=O)OC[C@H](COP(=O)([O-])OCC[N+](C)(C)C)OC(=O)CC(C)CCC=C(C)C (stereo partly drawn) [Compound 7b] | 1.06 | 112 ± 29.3 µM | – | – | – | – | – | – | – | – | – | –
52.5 ± 5.9 µM | 49.5 ± 1.88 µM | 38.2 ± 9.3 µM | 70.3 ± 8.6 µM | 34.6 ± 1.6 µM | 51.9 ± 6.7 µM | more than 9 fold | CCCCCCCCCCCCCCCC(=O)O[C@H](COC(=O)C=C(C)CCC=C(C)C)COP(=O)([O-])OCC[N+](C)(C)C (mixture of isomers) [Compound 10a] | 1.5 | 65.8 ± 3.34 µM | – | – | – | – | – | – | – | – | – | –
209 ± 25.7 µM | 60.2 ± 6.4 µM | 57.1 ± 6.37 µM | 233 ± 14.7 µM | 52.4 ± 3.6 µM | 57 ± 1.8 µM | more than 9 fold | CCCCCCCCCCCCCCCC(=O)O[C@H](COC(=O)CC(C)CCC=C(C)C)COP(=O)([O-])OCC[N+](C)(C)C (stereo partly drawn) [Compound 10b] | 1.09 | 92.9 ± 15.3 µM | – | – | – | – | – | – | – | – | – | –

From PMC4911001, “Synthesis and Biological Evaluation of Novel Phosphatidylcholine Analogues Containing Monoterpene Acids as Potent Antiproliferative Agents” (PLoS ONE, 2016)
